In ChEMBL document CHEMBL4308875, “Synthesis, antituberculosis studies and biological evaluation of new quinoline derivatives carrying 1,2,4-oxadiazole moiety” (Bioorg Med Chem Lett, 2019):
Converted amounts (≈) assume the structure as drawn.

Assays:
[1] = test system: Mycobacterium tuberculosis; assay: Antitubercular activity against Mycobacterium tuberculosis H37Rv after 15 days by turbidometric method; type: functional; settings: 360 h
HepG2 = assay: Cytotoxicity against human HepG2 cells after 24 hrs by MTT assay; type: cell-based; settings: HepG2, 24 h
Pseudomonas aeruginosa = assay: Antibacterial activity against Pseudomonas aeruginosa ATCC 15442 after 15 days by turbidometric method; type: functional; settings: ATCC 15442, 360 h
Acinetobacter baumannii = assay: Antibacterial activity against Acinetobacter baumannii ATCC 19606 after 15 days by turbidometric method; type: functional; settings: ATCC 19606 = CIP 70.34 = JCM 6841
[2] = AUClast in BALB/c mouse at 30 mg/kg, po; type: ADME, organism-based; design: dose 30 mg/kg, route oral, time 0 - last; settings: in vivo
[3] = test system: Mycobacterium tuberculosis; assay: Bacteriostatic activity against Mycobacterium tuberculosis H37Rv assessed as colony forming units at 0.002 to 64 ug/ml measured day 21 post dose by time kill assay (reference value: 0 log10CFU/ml); type: functional
[4] = Metabolic stability in human liver microsomes assessed as compound remaining at 1 uM after 120 mins in presence of G-6-P, G-6-PDH, MgCl2 and NADP+ by LC-MS/MS analysis (reference value: 100%)
[5] = Metabolic stability in human liver microsomes assessed as compound remaining at 1 uM after 15 mins in presence of G-6-P, G-6-PDH, MgCl2 and NADP+ by LC-MS/MS analysis (reference value: 100%)
[6] = Extrapolated AUC in BALB/c mouse at 30 mg/kg, po; type: ADME, organism-based; settings: in vivo
Staphylococcus aureus = assay: Antibacterial activity against Staphylococcus aureus ATCC 33591 after 15 days by turbidometric method; type: functional; settings: ATCC 33591, 360 h
[7] = Metabolic stability in human liver microsomes assessed as compound remaining at 1 uM after 120 mins by LC-MS/MS analysis (reference value: 100%)
[8] = Metabolic stability in human liver microsomes assessed as compound remaining at 1 uM after 60 mins in presence of G-6-P, G-6-PDH, MgCl2 and NADP+ by LC-MS/MS analysis (reference value: 100%)
Enterococcus faecium = assay: Antibacterial activity against Enterococcus faecium ATCC 51559 after 15 days by turbidometric method; type: functional; settings: ATCC 51559, 360 h
[9] = test system: Mycobacterium tuberculosis; assay: Bacteriostatic activity against Mycobacterium tuberculosis H37Rv assessed as colony forming units at 0.002 to 64 ug/ml measured day 3 post dose by time kill assay (reference value: 0 log10CFU/ml); type: functional
[10] = Tmax in BALB/c mouse at 30 mg/kg, po; type: ADME, organism-based; settings: in vivo
[11] = Half life in BALB/c mouse at 30 mg/kg, po; type: ADME, organism-based; settings: in vivo
Escherichia coli = assay: Antibacterial activity against Escherichia coli ATCC 25922 after 15 days by turbidometric method; type: functional; settings: ATCC 25922, 360 h
[12] = test system: Mycobacterium tuberculosis; assay: Bacteriostatic activity against Mycobacterium tuberculosis H37Rv assessed as colony forming units at 0.002 to 64 ug/ml measured day 14 post dose by time kill assay (reference value: 0 log10CFU/ml); type: functional
[13] = AUC (infinity) in BALB/c mouse at 30 mg/kg, po; type: ADME, organism-based; design: dose 30 mg/kg, time infinity, route oral; settings: in vivo
[14] = MRTlast in BALB/c mouse at 30 mg/kg, po; type: ADME, organism-based; settings: in vivo
[15] = Cmax in BALB/c mouse at 30 mg/kg, po; type: ADME, organism-based; design: dose 30 mg/kg, route oral; settings: in vivo
[16] = test system: Mycobacterium tuberculosis; assay: Bacteriostatic activity against Mycobacterium tuberculosis H37Rv assessed as colony forming units at 0.002 to 64 ug/ml measured day 7 post dose by time kill assay (reference value: 0 log10CFU/ml); type: functional
[17] = Metabolic stability in human liver microsomes assessed as compound remaining at 1 uM after 30 mins in presence of G-6-P, G-6-PDH, MgCl2 and NADP+ by LC-MS/MS analysis (reference value: 100%)
Klebsiella pneumoniae = assay: Antibacterial activity against Klebsiella pneumoniae ATCC 700603 after 15 days by turbidometric method; type: functional; settings: Klebsiella pneumoniae, 700603, 360 h

SMILES | MIC [1] | IC50 (HepG2) | MIC (Pseudomonas aeruginosa) | MIC (Acinetobacter baumannii) | AUC(0-t) [2] | remaining at 2 h, 1 µM [4] | remaining at 0.25 h, 1 µM [5] | %AUCextra [6] | MIC (Staphylococcus aureus) | remaining at 2 h, 1 µM [7] | remaining at 1 h, 1 µM [8] | MIC (Enterococcus faecium) | Tmax [10] | half-life [11] | MIC (Escherichia coli) | AUC(0-inf) [13] | MRT last [14] | Cmax [15] | remaining at 0.5 h, 1 µM [17] | MIC (Klebsiella pneumoniae) | also measured
N#Cc1cccc(-c2nc(CN3CCN(c4ccnc5cc(Cl)ccc45)CC3)no2)c1 | 64 µg/mL (≈ 149 µM) | – | – | – | – | – | – | – | – | – | – | – | – | – | – | – | – | – | – | – | –
CC(C)c1ccc(-c2nc(CN3CCN(c4ccnc5cc(-c6cc(F)cc(F)c6)ccc45)CC3)no2)cc1 | 32 µg/mL (≈ 60.9 µM) | – | – | – | – | – | – | – | – | – | – | – | – | – | – | – | – | – | – | – | –
CC(C)c1ccc(-c2nc(CN3CCN(c4ccnc5cc(Cl)ccc45)CC3)no2)cc1 | 0.5 µg/mL (≈ 1.12 µM) | > 100 µM | > 32 µg/mL | > 32 µg/mL | 5270 ng·h/mL | 39.7% | 82% | 1.17% | > 32 µg/mL | 89.2% | 55.3% | > 32 µg/mL | 1 h | 1.63 h | > 32 µg/mL | 5330 ng·h/mL | 1.5 h | 2500 ng/mL | 67.2% | > 32 µg/mL | Emax [3]: 0.9 log10CFU/ml; Emax [9]: 0.2 log10CFU/ml; Emax [12]: 0.9 log10CFU/ml; Emax [16]: 1.1 log10CFU/ml
Cc1cccc(-c2nc(CN3CCN(c4ccnc5cc(-c6ccncc6)ccc45)CC3)no2)c1C | 2 µg/mL (≈ 4.2 µM) | – | – | – | – | – | – | – | – | – | – | – | – | – | – | – | – | – | – | – | –
N#Cc1cccc(-c2nc(CN3CCN(c4ccnc5cc(-c6cc(F)cc(F)c6)ccc45)CC3)no2)c1 | > 256 µg/mL | – | – | – | – | – | – | – | – | – | – | – | – | – | – | – | – | – | – | – | –
CC(C)c1ccc(-c2nc(CN3CCN(c4ccnc5cc(-c6ccncc6)ccc45)CC3)no2)cc1 | 2 µg/mL (≈ 4.08 µM) | – | – | – | – | – | – | – | – | – | – | – | – | – | – | – | – | – | – | – | –
Cc1cccc(-c2nc(CN3CCN(c4ccnc5cc(-c6cccnc6)ccc45)CC3)no2)c1C | 0.25 µg/mL (≈ 0.525 µM) | > 100 µM | > 32 µg/mL | > 32 µg/mL | 8290 ng·h/mL | 18.1% | 65.1% | 0.22% | > 32 µg/mL | 78% | 31.7% | > 32 µg/mL | 0.5 h | 0.94 h | > 32 µg/mL | 8310 ng·h/mL | 1.34 h | 6410 ng/mL | 47.3% | > 32 µg/mL | –
COc1cc(OC)cc(-c2nc(CN3CCN(c4ccnc5cc(Cl)ccc45)CC3)no2)c1 | 32 µg/mL (≈ 68.7 µM) | – | – | – | – | – | – | – | – | – | – | – | – | – | – | – | – | – | – | – | –
c1cncc(-c2ccc3c(N4CCN(Cc5noc(C6CCCC6)n5)CC4)ccnc3c2)c1 | 0.25 µg/mL (≈ 0.567 µM) | > 50 µM | 512 µg/mL (≈ 1160 µM) | 512 µg/mL (≈ 1160 µM) | 20000 ng·h/mL | 21.9% | 60.8% | 0.71% | 512 µg/mL (≈ 1160 µM) | 97.8% | 38% | 64 µg/mL (≈ 145 µM) | 0.5 h | 0.75 h | 256 µg/mL (≈ 581 µM) | 20200 ng·h/mL | 1.31 h | 9600 ng/mL | 54.8% | 256 µg/mL (≈ 581 µM) | –
Clc1ccc2c(N3CCN(Cc4noc(C5CCCC5)n4)CC3)ccnc2c1 | 32 µg/mL (≈ 80.4 µM) | – | – | – | – | – | – | – | – | – | – | – | – | – | – | – | – | – | – | – | –
COc1cc(OC)cc(-c2nc(CN3CCN(c4ccnc5cc(-c6ccncc6)ccc45)CC3)no2)c1 | > 128 µg/mL | – | – | – | – | – | – | – | – | – | – | – | – | – | – | – | – | – | – | – | –
CC(C)c1ccc(-c2nc(CN3CCN(c4ccnc5cc(-c6cccnc6)ccc45)CC3)no2)cc1 | 0.25 µg/mL (≈ 0.51 µM) | > 100 µM | > 32 µg/mL | > 32 µg/mL | 11900 ng·h/mL | 23% | 74.1% | 0.6% | > 32 µg/mL | 76.5% | 40.1% | > 32 µg/mL | 0.5 h | 1.05 h | > 32 µg/mL | 11900 ng·h/mL | 1.38 h | 7440 ng/mL | 56.8% | > 32 µg/mL | –
Fc1cc(F)cc(-c2nc(CN3CCN(c4ccnc5cc(Cl)ccc45)CC3)no2)c1 | > 128 µg/mL | – | – | – | – | – | – | – | – | – | – | – | – | – | – | – | – | – | – | – | –
